# Source: PubChem BioAssay (NCI)
# Where “and” joins values, the source holds several entries; their conditions need not be identical. Identical values can stand only once.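 Grown in 96-well plates, cells were treated for 48 hours with each compound at five concentrations. Insufficient inhibition: endpoint recorded as highest concentration tested. GI50 marks 50% less growth. TGI denotes the concentration required for complete inhibition of growth.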
# What was measured:
# Assay in all cases: NCI-60 cell line screen, 48 h
# MCF7 breast = tested on: MCF7 breast
# MDA-MB-231 breast = tested on: MDA-MB-231 breast
# MDA-MB-435 = tested on: MDA-MB-435
# HS 578T breast = tested on: HS 578T breast
# PC-3 prostate = tested on: PC-3 prostate
# DMS 114 small cell lung = tested on: DMS 114 small cell lung
# LXFL 529 NSCLC = tested on: LXFL 529 NSCLC
# M19-MEL melanoma = tested on: M19-MEL melanoma
SMILES,TGI (MCF7 breast),TGI (MDA-MB-231 breast),TGI (MDA-MB-435),TGI (HS 578T breast),TGI (PC-3 prostate),GI50 (MCF7 breast),GI50 (MDA-MB-231 breast),GI50 (MDA-MB-435),GI50 (PC-3 prostate),GI50 (HS 578T breast),TGI (DMS 114 small cell lung),TGI (LXFL 529 NSCLC),TGI (M19-MEL melanoma)
CC(=O)OCc1cc2ccccc2nc1C(Br)(Br)Br,30.7 µM,44.9 µM,27 µM,> 100 µM,–,–,–,–,–,–,–,–,–
O=c1c(O)c(-c2cc(O)c(O)c(O)c2)oc2cc(O)cc(O)c12,37.4 µM,35.8 µM,34.8 µM,> 100 µM,> 100 µM,–,–,–,–,–,–,–,–
O=C(OC[C@H]1O[C@H](OC(=O)c2cc(O)c(O)c(OC(=O)c3cc(O)c(O)c(O)c3)c2)[C@H](OC(=O)c2cc(O)c(O)c(OC(=O)c3cc(O)c(O)c(O)c3)c2)[C@@H](OC(=O)c2cc(O)c(O)c(OC(=O)c3cc(O)c(O)c(O)c3)c2)[C@@H]1OC(=O)c1cc(O)c(O)c(OC(=O)c2cc(O)c(O)c(O)c2)c1)c1cc(O)c(O)c(OC(=O)c2cc(O)c(O)c(O)c2)c1,11.1 µM,> 25 µM,7.89 µM,> 25 µM,> 25 µM,5.21 µM,0.898 µM,1.5 µM,2.33 µM,10.3 µM,–,–,–
O=C1C(Cl)=C(NCc2ccco2)C(=O)c2ccccc21,> 27.9 µM,> 81.5 µM,3.89 µM,10.1 µM,> 100 µM,2.39 µM,18.4 µM,2.06 µM,33.6 µM,3.2 µM,–,–,–
CCOC(=O)c1c2c(n3ccccc13)C(=O)c1ncccc1C2=O,1.77 µM,> 100 µM,16.4 µM,–,14.9 µM,0.0284 µM,2.76 µM,0.194 µM,0.361 µM,–,–,–,–
CCOc1ccc2nc(NC(=O)C(=O)C(c3cnc4ccccc4n3)[N+](=O)[O-])sc2c1 (stereo not drawn),> 100 µM,> 100 µM,–,> 100 µM,> 100 µM,–,–,–,–,–,–,–,–
C=C1CC2(OC1=O)C(=O)Nc1ccccc12 (stereo not drawn),6.17 µM,17 µM,14.9 µM,56.6 µM,18.8 µM,2.14 µM,4.62 µM,3.57 µM,5.26 µM,11 µM,–,–,–
NC(N)=NS(=O)(=O)c1ccc(NCCc2c3ccccc3nc3ccccc23)cc1,–,–,–,–,–,–,–,–,–,–,> 100 µM,> 100 µM,> 100 µM
CN(C)c1ccc(/C=C/c2cc[n+](C)c(/C=C/c3ccc(N(C)C)cc3)c2)cc1,1.13 µM,1.28 µM,1.32 µM,16.6 µM,1.26 µM,0.272 µM,0.322 µM,0.346 µM,0.248 µM,0.491 µM,–,–,–
COC(=O)/C=C/c1cc2c(cc1-c1c(C(=O)O)cc(OC)c(OC)c1OC)OCO2,> 10 µM,> 10 µM,> 10 µM,> 10 µM,> 10 µM,–,–,–,–,–,–,–,–
COc1cc(C2CC(c3ccc(Nc4ccnc5cc(Cl)ccc45)cc3)=NN2c2ccc(Cl)cc2)cc(OC)c1OC (stereo not drawn),> 100 µM,27.1 µM,2.05 µM,> 100 µM,> 100 µM,0.86 µM,1.93 µM,0.329 µM,1.47 µM,2.18 µM,–,–,–
COc1ccc2c(c1)C(=O)c1c-2n(CCCI)c(=O)c2cc([N+](=O)[O-])ccc12,–,50 µM and > 100 µM,5.43 µM and 16.5 µM,31.2 µM and 35.3 µM,30.4 µM and > 100 µM,0.0105 µM and 0.0343 µM,12.9 µM and 22.9 µM,0.449 µM and 1.49 µM,0.279 µM and 1.42 µM,7.67 µM and 3.85 µM,–,–,–
C[N+]1=C(/C=C\C=C\c2ccccc2)C(C)(C)c2ccccc21,11 µM,7.52 µM,5.17 µM,22.4 µM,14.9 µM,2.48 µM,2.36 µM,2.01 µM,3.54 µM,4.6 µM,–,–,–
COC(=O)[C@@H](C)C[C@H](Cc1ccccc1)NC(=O)c1csc([C@@H](C[C@H](C(C)C)N(C)C(=O)[C@@H](NC(=O)[C@H]2CCCCN2C)C2CC2)OC(C)=O)n1,> 16.5 µM,> 16.5 µM,< 0.00165 µM,> 16.5 µM,> 16.5 µM,–,0.00143 µM and 0.00165 µM,< 0.00165 µM,0.000211 µM and 0.00165 µM,0.00112 µM and 0.00165 µM,–,–,–
COC(=O)CC[C@H](Cc1ccccc1)NC(=O)c1csc([C@@H](C[C@H](C(C)C)N(C)C(=O)[C@@H](NC(=O)[C@H]2CCCCN2C)C(C)C)OC(C)=O)n1,> 25 µM,> 25 µM,–,> 25 µM,> 25 µM,< 0.0025 µM,0.0057 µM,–,< 0.0025 µM,< 0.0025 µM,–,–,–
Cc1ccc(Cl)cc1NC(=O)c1sc2nc3c(cc2c1N)C(=O)CCC3,> 100 µM,–,5.04 µM,> 100 µM,> 100 µM,4.67 µM,–,1.1 µM,4.34 µM,2.34 µM,–,–,–
N#C/C(=C\c1ccc(Br)cc1)n1nnc2ccc(F)cc21,2.85 µM,4.8 µM,0.403 µM,20.4 µM,2.89 µM,0.372 µM,1.87 µM,0.19 µM,0.953 µM,2.71 µM,–,–,–
COc1cc(Nc2ncc(F)c(Nc3ccc4c(n3)N(COP(=O)(O)O)C(=O)C(C)(C)O4)n2)cc(OC)c1OC,22.6 µM and > 10 µM,5.07 µM and 7.69 µM,22 µM and > 10 µM,4.27 µM and 0.59 µM,22.6 µM and > 10 µM,3.02 µM and 3.32 µM,1.67 µM and 1.35 µM,2.78 µM and 2.67 µM,2.1 µM and 4.17 µM,0.538 µM and 0.173 µM,–,–,–
CCCCCCCc1cc2c3c(nc4ccccc42)C(=O)c2cccnc2-c3n1,5.92 µM,20 µM,4.33 µM,11.6 µM,10.9 µM,1.54 µM,6.71 µM,1.96 µM,4.39 µM,4.86 µM,–,–,–
Cn1cc(-c2ccc(-c3ccc(C4=NC5(CC5)C(=O)N4C[C@@H]4CCN(C(=O)C5CC5)C4)cc3)cc2)cn1,> 100 µM,37.3 µM,38.9 µM,84.1 µM,> 100 µM,1.12 µM,11.2 µM,10.4 µM,22.8 µM,19.2 µM,–,–,–
Cc1cnc(C(=O)NNc2nc3sc4c(c3c(=O)n2C)C(C)CCC4)cn1 (stereo not drawn),1.7 µM,4.04 µM,7.26 µM,17.1 µM,11.2 µM,0.29 µM,0.335 µM,0.751 µM,0.465 µM,1.56 µM,–,–,–
Cc1ncc(C(=O)Nc2ccc(CN3CCN(C)CC3)c(C(F)(F)F)c2)cc1C#Cc1cnc(N)cc1C#N,4.48 µM,1.92 µM,1.61 µM,1.72 µM,3.48 µM,1.69 µM,0.222 µM,0.084 µM,0.71 µM,0.204 µM,–,–,–
